# Test results reported in US11497713B2, “Combination taxoid nanoemulsion with immunotherapy in cancer” (TargaGenix, Inc., priority 2017, dated 2022).
# Entries after “also recorded” stand apart in the source; their conditions may differ. Read-outs that look alike come from different tables or passages of the source.
# Columns and labels:
# [1] = system: drug-resistant cell lines expressing MDR phenotypes; conditions: cited from earlier work
# [2] = Formulation concentration, droplet properties and storage stability
# Source text: The droplet size is consistently less than 200 nm in diameter allowing one to filter sterilize the final formulation. The zeta potential of the nanoemulsion is in the range of negative 23 mV to 33 m.
# [3] = system: patient-derived PPT2 prostate cancer stem cell xenograft; experiment: Patient-derived prostate cancer stem cell (PPT2) xenograft model; type: in vivo, mice; conditions: patient-derived prostate CSC xenograft
# [4] = molecular target: P-glycoprotein (P-gp) transporter (Homo sapiens, UniProt P08183); conditions: cited from earlier work
# Sequence of P-glycoprotein (P-gp) transporter (P08183 whole entry): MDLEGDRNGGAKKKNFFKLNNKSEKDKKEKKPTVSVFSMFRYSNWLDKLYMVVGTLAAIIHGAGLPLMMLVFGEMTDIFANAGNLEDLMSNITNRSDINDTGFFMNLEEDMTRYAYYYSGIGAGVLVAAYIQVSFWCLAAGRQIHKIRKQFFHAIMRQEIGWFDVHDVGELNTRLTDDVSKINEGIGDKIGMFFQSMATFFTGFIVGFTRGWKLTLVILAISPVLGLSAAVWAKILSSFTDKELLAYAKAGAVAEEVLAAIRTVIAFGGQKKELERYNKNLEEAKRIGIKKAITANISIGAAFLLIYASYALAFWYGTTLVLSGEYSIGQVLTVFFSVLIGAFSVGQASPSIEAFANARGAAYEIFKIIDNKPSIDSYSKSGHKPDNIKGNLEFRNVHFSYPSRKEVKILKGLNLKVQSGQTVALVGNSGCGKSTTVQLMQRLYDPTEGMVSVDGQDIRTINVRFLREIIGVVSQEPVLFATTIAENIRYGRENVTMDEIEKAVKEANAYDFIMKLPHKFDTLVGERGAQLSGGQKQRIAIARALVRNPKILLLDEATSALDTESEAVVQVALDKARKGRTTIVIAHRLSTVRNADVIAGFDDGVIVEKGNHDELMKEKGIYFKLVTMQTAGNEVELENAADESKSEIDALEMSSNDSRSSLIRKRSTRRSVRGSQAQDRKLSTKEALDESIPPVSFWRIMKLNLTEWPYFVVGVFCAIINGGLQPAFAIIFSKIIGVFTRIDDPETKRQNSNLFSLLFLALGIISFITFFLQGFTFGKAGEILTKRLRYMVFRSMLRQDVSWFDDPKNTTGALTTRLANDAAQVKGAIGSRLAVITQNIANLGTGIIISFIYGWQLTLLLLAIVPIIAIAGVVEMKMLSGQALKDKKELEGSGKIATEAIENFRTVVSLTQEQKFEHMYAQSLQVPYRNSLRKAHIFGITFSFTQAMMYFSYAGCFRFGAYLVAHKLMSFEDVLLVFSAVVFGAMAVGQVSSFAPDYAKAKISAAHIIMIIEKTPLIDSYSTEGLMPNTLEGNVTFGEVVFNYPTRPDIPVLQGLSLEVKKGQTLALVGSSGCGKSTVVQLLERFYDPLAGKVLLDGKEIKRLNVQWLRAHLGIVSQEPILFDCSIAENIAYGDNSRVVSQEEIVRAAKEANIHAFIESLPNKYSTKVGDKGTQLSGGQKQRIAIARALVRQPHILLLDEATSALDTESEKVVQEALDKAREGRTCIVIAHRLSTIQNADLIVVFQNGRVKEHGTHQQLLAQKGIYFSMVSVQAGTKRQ
# [5] = system: human CFPAC-1 pancreatic tumor xenograft; experiment: Human CFPAC-1 pancreatic tumor xenograft efficacy (FIG. 2); type: in vivo, mice; conditions: 240 mg/kg or 300 mg/kg total dose
# [6] = system: CSCs purified from three human colon cancer cell lines, DLD-1, HTC-116, and HT-29; conditions: cited from earlier work
# [7] = system: colon and prostate cancer cell lines grown as spheroids; experiment: Spheroid assay with CD133high/CD44high colon and prostate cancer cells; type: cell-based; conditions: cells selected for CD133high/CD44high
# Source text: The results from experiments using DHA-SBT-1214 in two human pancreatic tumor models (FIGS. 2 and 3) and a proof-of-concept in patient-derived CSC model are described below. The compelling aspects of DHA-SBT-1214 preclinical activity is its effects on CSCs. Highly plastic CSCs are an important new drug target in the treatment of refractory tumors. Through the development of drugs specifically targeting CSCs (or targeting CSCs in addition to tumor cells) a more durable clinical response may be possible. In addition to the previously described cytotoxicity assays in cell cultures, DHA-SBT-1214 was tested in colon and prostate cancer cell lines grown as spheroids from cells selected for being CD133^high/CD44^high, characteristic of stem cells. […] Perhaps more significant was the effect of exposure to relatively low concentrations of DHA-SBT-1214 (100 nM to 1 μM) for 24 hours on the expression of genes associated with “sternness” in several colon and prostate cancer cells lines grown as microspheres (6,7).
# [8] = system: highly drug resistant tumor xenografts; experiment: Highly drug resistant tumor xenografts in mice; conditions: mouse, in vivo
# [9] = system: drug-resistant colon tumor xenografts; experiment: Drug-resistant colon tumor xenografts; type: in vivo; conditions: all surviving mice
# PDAC = conditions: cited from earlier work
# [10] = system: PD-L1, PD-1, CD4, CD8 and Arginase-1 expression in tumor tissues; experiment: RT-PCR and western blotting of Panc02 tumor tissues; type: in vivo, mouse; conditions: anti-PD-L1 combination versus IgG treated group
# Procedure: Cells and tumor tissues were washed twice with phosphate-buffered saline (PBS) and lysed in ice-cold lysis buffer containing 2% proteinase inhibitor (both from Sigma-Aldrich Co., St. Louis, Mo., USA). Cells were retrieved with a cell scraper, stirred and incubated on ice for 15 minutes. Mice tumor tissues were sonicated for 10 seconds on ice with sonicator. Lysates were centrifuged, supernatants were collected, and protein concentration was determined using the Bio-Rad protein assay (Bio-Rad Laboratories, Hercules, Calif., USA). The supernatants were diluted with lysis buffer to create equal concentrations of protein. […] Immunocomplexes were detected using western blotting (ECL Prime; GE Healthcare UK Ltd., Buckinghamshire, UK).
# The expression level of PD-L1 and mRNA for other proteins was determined using real-time PCR as previously described. […] Relative quantifications of gene expression with qRT-PCR data were calculated relative to murine β-actin.
# To investigate how the anticancer agents, induce PD-L1, PD-1, CD4, CD8 and Arginase-1 mRNA expression in pancreatic cancer tumor tissues, the mRNA level of PD-L1, PD-1, CD4, CD8, and Arginase-1 either alone or in combination of immune checkpoint inhibitor was determined by RT-PCR. […]
Structure (SMILES),potency higher than those of paclitaxel and docetaxel [1],increase in drug concentration in omega-3 fatty acid based nanoemulsion by DHA conjugation [2],stability ([2]; in Solutol-HS15),formulated drug concentration ([2]; in Tween 80 or Solutol-HS15),"efficacy (tumor growth, survival) [3]",substrate for MDR mechanisms such as P-gp over-expression [4],weight loss [5],expression of stem related genes [6],number of spheroids [7],efficacy [8],tumor growth delay [9],tumor regression [9],median overall survival (PDAC; MPACT Phase III clinical trial),"median overall survival (PDAC; randomized Phase III trial, gemcitabine versus 5-FU)",PD-1 and CD4 mRNA level [10]
"CC/C=C\C/C=C\C/C=C\C/C=C\C/C=C\C/C=C\CCC(=O)O[C@@H](C(=O)O[C@H]1C[C@@]2(O)[C@@H](OC(=O)c3ccccc3)[C@@H]3[C@]4(OC(C)=O)CO[C@@H]4C[C@H](O)[C@@]3(C)C(=O)[C@H](OC(=O)C3CC3)C(=C1C)C2(C)C)[C@H](C=C(C)C)NC(=O)OC(C)(C)C [DHA-SBT-1214, Docosahexaenoic acid conjugate of SBT-1214]",two-to-three,5 fold,less than 24 hours,6 mg/mL,effective; also recorded: superior to ABRAXANE® and resulted in tumor clearance,not a substrate,negligible,down-regulate stem related genes,greatly reduced,remarkable efficacy,> 167 days,complete regression,,,
Nc1ccn([C@@H]2O[C@H](CO)[C@@H](O)C2(F)F)c(=O)n1 [gemcitabine],,,,,,,,,,,,,6.6 months,5.65 months,not significantly higher
